Reference: patent US10391096B2, “Method for treating thrombotic disorders using quercetin-containing compositions” (Quercegen Pharmaceuticals LLC, priority 2011, dated 2019)

What was measured:
platelet aggregation = conditions: in vitro; cited from earlier work
[1] = hypertensive patients; cited from earlier work
D-dimer = D-dimer level in blood of hypertensive patients treated with quercetin; assay type: in vivo, humans
Text: As mentioned above, PDI plays a critical role in the initiation of the coagulation cascade. By blocking this critical enzyme activity, quercetin can prevent thrombus formation. The antithrombotic activity of quercetin can be evaluated in humans by measuring D-dimer levels in plasma samples from patients treated with quercetin. D-dimer, a small protein fragment present in the blood, is a fibrin degradation product. The level of D-dimer in the blood increases after a thrombotic event due to its release from blood clots via fibrinolysis. […] Hypertensive patients are prone to thrombotic events.

SMILES: O=c1c(O)c(-c2ccc(O)c(O)c2)oc2cc(O)cc(O)c12 [Quercetin, quercetin]
- platelet aggregation (platelet aggregation): inhibit platelet aggregation
- blood pressure [1]: reduce blood pressure
- level of D-dimer in blood (D-dimer): reduction in the level of D-dimer
